For experiment [1], the system named is creeping bentgrass. Format: in vivo, creeping bentgrass (variety: 007). As to conditions: measured Day 15. The method, then: (§1) A polypot with 5 cm each side was placed on a balance dish BD-2 (AS ONE Corporation), and 120 ml of joint- and bed-soil for turf grass (TACHIKAWA HEIWA NOUEN CO., LTD.) was then added into the pot. Thereafter, 140 mg of seeds of creeping bentgrass (variety: 007, Power Shop FUJI) was seeded on the soil, and 3 ml of the soil was further added onto the seeds. Thereafter, 10 ml of tap water was supplied to the balance dish. The polypot (together with the balance dish) was placed on a tray, and was then placed in an artificial climate chamber having a temperature of 20° C., a light intensity of 300 μmol/m^2/s, a light period of 16 hours, a dark period of 8 hours, and a humidity of 70%, and thereafter, cultivation was initiated. The day on which cultivation was initiated was defined as Day 0 after sowing. On Day 2 after sowing, 40 ml/pot tap water was applied to all pots. On Day 5 after sowing, germination was confirmed.
On Days 6, 11 and 13 after sowing, tap water (hereinafter referred to as a “water group”) or a 0.5 or 1 mM allantoin aqueous solution (hereinafter referred to as an “allantoin group”) was applied, in an amount of 40 ml/pot, to individual experiment groups. On and after Day 13 after sowing, a difference was found in the growth of turf glasses among individual groups. On Day 15, 20 turf grasses were selected from each pot, and the grass height and fresh weight of each grass were then measured. Based on the measured values, a mean value was calculated.

A further experiment deals with onion. In words: High temperature stress resistance of onion via allantoin application (Experiment 2). The settings on record: for viability 3 days after the heat shock treatment: 1 mM allantoin 40 ml/pot 6 days after sowing. Format: in vivo, onion (variety: Neoearth). The method, then:
(§2) A 5-cm polypot was mounted on a balance dish BD-2 (AS ONE Corporation), 70 ml of vermiculite (Protoleaf Inc.) was introduced thereinto, 80 ml of culture soil (TAKII & CO., LTD.) was further introduced thereinto, 3 seeds of onion (variety: Neoearth; TAKII & CO., LTD.) were sowed at 3 positions, and 20 ml of vermiculite was further introduced thereinto, so as to cover the soil. Thereafter, 50 ml of tap water was supplied to the balance dish two times. The polypot (together with the balance dish) was mounted on a bat, and the resultant was then introduced into an incubator at 22° C. and 10,000 Lux for a light period of 12 hours and a dark period of 12 hours, so as to initiate cultivation. The day on which cultivation was initiated was designated as Day 0 after sowing. Germination was observed 5 days after sowing. While leaving 3 plants in each pot (i.e., a plant in each position), other plants were removed therefrom 6 days after sowing.
Tap water or an aqueous solution of 1 mM allantoin was applied to each test group (40 ml/pot) 6 days after sowing (hereafter, referred to as the “water treatment group” or the “allantoin treatment group,” respectively). Tap water was applied to all the pots (40 ml/pot) 11 days after sowing. The pots mounted on the bats were introduced into the incubator 13 days after sowing (at the 2-true-leaf stage in the case of onions), and the plants were exposed to high temperature stress at 45° C. for 1 hour, 1.5 hours, and 2 hours. Soil in the pots was sufficiently humidified before and after high temperature stress application. After the completion of the high temperature stress treatment, the temperature in the incubator was cooled to 22° C., and cultivation was continued. Water was supplied 2 days after the heat shock treatment (40 ml/pot). Thereafter, water was supplied in an amount of 40 ml per pot at intervals of 2 days.
(§3) The “viability” indicates the proportion of the number of survived plants relative to the number of plants subjected to the heat shock treatment. The viability was calculated by regarding plants that would no longer grow (i.e., the plants with the youngest leaves suffering from physical damage, such as whitening, withering, or curling of leaves) as plants that are not survived.

Experiment [2] deals with Arabidopsis thaliana. In words: High temperature stress resistance of Arabidopsis thaliana cultivated in allantoin-containing medium (Experiment 6). Format: in vivo. As to conditions: 10 μM, 100 μM or 1,000 μM allantoin in ½ MS solid medium; 45° C. 105 minutes; grown 1 week. The method, then:
The wild-type (WT) line of Arabidopsis thaliana (L.) Heynh., accession Columbia-0 described in Experiment 1 was used.
The ½ MS solid medium described in Experiment 1 (Table 1) was used (10 μM, 100 μM, or 1,000 μM allantoin was further added to the allantoin-supplemented group, allantoin was not added to the allantoin-free group, a deep sterilized petri dish No. 903 VALMARK; Ina-Optika Corporation).
(5) In the petri dish, a circular accommodation part (a plane view) is divided into 2 semicircular compartments by a partition wall extended toward a diametrical direction. The allantoin-free ½ MS solid medium was accommodated in one of the compartments of the petri dish, the allantoin-supplemented ½ MS solid medium was accommodated in another compartment, and 15 seeds were sowed in each compartment (i.e., 30 seeds in total per petri dish) (FIG. 5A).
(8) The resultant was transferred to a culture chamber and cultured therein at 22° C. under long-day conditions (light application for 16 hours under fluorescent light: 0.07 mmol photons […] s^−1) for 7 days. […]
(10) Thereafter, the petri dish was cooled in an incubator at 23° C. for 10 to 15 minutes, and the plants were then allowed to grow again for 1 week under the conditions (8). […] The viability was evaluated on the basis of such phenomenon. […]

The test system of experiment [3] is creeping bentgrass. Format: in vivo, creeping bentgrass (variety: 007). The settings on record: 1 mM allantoin 40 ml/pot on Days 7, 10 and 13; measured Day 13 after sowing; mean of 20 grasses per pot. The procedure:
as §1
On Days 7, 10 and 13 after sowing, tap water (hereinafter referred to as a “water group”) or a 1 mM allantoin aqueous solution (hereinafter referred to as an “allantoin group”) was applied, in an amount of 40 ml/pot, to individual experiment groups. […]
On Day 13 after sowing, 20 turf grasses were selected from each pot, and the grass height and fresh weight of each grass were then measured. Based on the measured values, a mean value was calculated. […]

In experiment [4] the test system is HSF3 (AGI code: AT5G16820). In words: HSF3 gene expression, quantitative PCR, cultivation in allantoin-containing medium (Experiment 5). Format: in vivo, Arabidopsis thaliana. The settings on record: 1 mM allantoin in ½ MS solid medium, 14 days, leaves and stems, reference gene ACT2. The procedure: (§4) Seeds of wild-type Arabidopsis thaliana line (Columbia-0) were sterilized in 2.5% (v/v) sodium hypochlorite, sowed in the ½ MS solid medium described in Experiment 1 (Table 1) (the medium was supplemented with 1 mM allantoin; allantoin was not added to the control group: a deep petri dish with a diameter of 90 mm and a height of 20 mm), and then allowed to grow under long-day conditions (in an incubator at 5,000 Lux, a light period of 16 hours and a dark period of 8 hours, 22° C.) for 14 days. Using a commercialized kit, RNA extraction from leaves and stems of Arabidopsis thaliana (NucleoSpin RNAII, MACHEREY-NAGEL), reverse transcription (ReverTra Ace qPCR RT Master Mix, TOYOBO), and quantitative PCR (KAPA SYBR FAST qPCR Master Mix, KAPABIOSYSTEMS) were carried out. As a reference gene, ACT2 (AGI code: AT3G18780) was used. As a result, the relative expression level of DREB2A (AGI code: AT5G05410; SEQ ID NO: 1) and that of HSF3 (AGI code: AT5G16820; SEQ ID NO: 2) were 2.2 times and […] greater than the expression level of the control group, respectively.

Experiment [5] has as its system Arabidopsis thaliana. The settings on record: application of allantoin to Arabidopsis thaliana; cited from earlier work.
For experiment [6], the system named is DREB2A (AGI code: AT5G05410). In words: DREB2A gene expression, quantitative PCR, cultivation in allantoin-containing medium (Experiment 5). The format is in vivo, Arabidopsis thaliana. As to conditions: 1 mM allantoin in ½ MS solid medium, 14 days, leaves and stems, reference gene ACT2. The method, then:
as §4

The subject of another experiment is rice (Koshihikari). In words: Leaf Area Index of rice in paddy field after allantoin application to seedlings (Experiment 9). Format: in vivo. The settings on record: for LAI (Leaf Area Index): 1 mM allantoin 3 L per nursery box on Day 26 after sowing, two plant bodies. The procedure:
A 1 mM allantoin aqueous solution or water was applied in an amount of 3 L each to the seedlings of rice (Koshihikari) on Day 26 after sowing (the size of a nursery box: 280×580×28 (mm) (depth×width×height)). A total of the applied dose of allantoin per unit area, which was applied for a single application in Experiment 9, was 3.0 g/m^2 (1.05 g/m^2 relative to allantoin nitrogen) in the 1 mM allantoin group.
Twelve hours after the application, the seedlings were planted in a paddy field, and were then allowed to grow for 55 days and for 63 days. Thereafter, using a leaf area measurement apparatus LAI-2200 (MEIWAFOSIS CO., LTD.), Leaf Area Index (LAI) which indicates the leaf area under conditions in which the plant still grows in the field, was non-destructively measured. LAI was obtained from two plant bodies in each of the allantoin group and the water group (n=2).

The test system of another experiment is rice. The settings on record: rice seeds immersed in 300 mg/L allantoin solution for 24 hours; cited from earlier work.
Experiment [7] deals with wild-type Arabidopsis thaliana. As to conditions: allantoin administered to wild-type Arabidopsis thaliana; cited from earlier work.
Experiment [8] has as its system Brassica chinensis komatsuna. The experiment is described as follows: High temperature stress resistance of Brassica chinensis komatsuna via allantoin application (Experiment 3). Format: in vivo, Brassica chinensis komatsuna (variety: Rakuten). As to conditions: 1 mM allantoin 40 ml/pot 6 and 13 days after sowing, 45° C. for 1 hour. The procedure: as §2, with “Brassica chinensis komatsuna” for “onion”, “Rakuten,” for “Neoearth;”, “the center of the pot,” for “3 positions,”, “bat” for “bat,”, “and” for “and the resultant was then”, “sowing.” for “sowing. Germination was observed 5 days after sowing. While leaving 3 plants in each pot (i.e., a plant in each position), other plants were removed therefrom 6 days after sowing.”
Germination was observed 3 days after sowing. While leaving one plant in each pot, other plants were removed therefrom 6 days after sowing. […]
as §3

[9] abbreviates: 0.5 mM allantoin 40 ml/pot on Days 6, 11 and 13.
Where [10] appears, read: 1 mM allantoin 40 ml/pot on Days 6, 11 and 13.

SMILES strings stand for the structures. Values joined by “and” are separate entries in the source; they are usually repeats but may differ in a detail not shown here. Identical values can stand only once. Like-named read-outs stand apart in the source and are kept apart here.

As for `NC(=O)NC1NC(=O)NC1=O` (racemic) [Allantoin], the values for the Fresh weight in the experiment on creeping bentgrass [1] (setting [9]), with creeping bentgrass [1] (setting [10]) and with creeping bentgrass [3] were 3 mg, 3.1 mg and 2.9 mg, respectively. Further, the Grass height in the experiment on creeping bentgrass [1] (setting [9]) is listed as 5.8 cm; in the experiment with creeping bentgrass [1] (setting [10]), 5.9 cm; with creeping bentgrass [3], 5.6 cm. In addition, the “viability 3 days after the heat shock treatment” value with onion (45° C. for 1 hour) stood at 66.7%; in the experiment on onion (45° C. for 1.5 hours), 33.3%; in the experiment with onion (45° C. for 2 hours), 11.1%. Further, the “viability 8 days after heat shock treatment” value in the experiment with onion (1 mM allantoin, 45° C. for 1, 1.5 and 2 hours, compared with 3 days) is listed as “same viability”. Moreover, the “resistance to high temperature stress (viability)” value in the experiment on Arabidopsis thaliana [2] is recorded as “has resistance to high temperature stress”. The “relative expression level of HSF3 versus control group” value in experiment [4] amounted to 0.7 times. For the same compound, the plant growth entry in the experiment on Arabidopsis thaliana [5] is “promoted”. Besides, the “relative expression level of DREB2A versus control group” value in experiment [6] stood at 2.2 times. The “LAI (Leaf Area Index)” value with rice (Koshihikari) (55th day in paddy field) was 1.94 m^2/m^2 and 2.04 m^2/m^2; in the experiment on rice (Koshihikari) (63rd day in paddy field), 2.71 m^2/m^2 and 2.82 m^2/m^2. Besides, the “LAI smaller than the LAI of the water group” value with rice (Koshihikari) (55th day) is given as “approximately 25%”; in the experiment with rice (Koshihikari) (63rd day), “approximately 10%”. Moreover, the “height of the seedlings, number of roots and fresh weight of the seedlings versus water control” value in the experiment on rice is “increased”. In addition, the “production of abscisic acid” value in [7] is “promoted”. Besides, in experiment [8], the “viability 7 days after the heat shock treatment” value is reported as 100%.

(Values after patent US10182569B2, “Composition comprising allantoin and method of applying allantoin to a plant” (Kaneka Corporation, priority 2016, dated 2019).)
